Source: patent US20250018052A1, “ANTI-HER3 ANTIBODY DRUG CONJUGATE, COMPOSITION THEREOF, AND USE THEREOF” (CHIA TAI TIANQING PHARMACEUTICAL GROUP CO., LTD., priority 2021, published 2025)

Experiments:
[1] = system: BT474 cells with high HER3 expression level; assay: Cell killing activity (CellTiter-Glo), BT474; assay type: cell-based; details: cultured for 96 h, 120 h, or 144 h
Procedure: (§1) Cells in the logarithmic growth phase were added to a 96-well plate at 100 μL/well, and the cell density was 1×10^4/mL or […]. Adherence culture was carried out at 37° C. and 5% CO2 overnight. Sample preparation: the patritumab-eribulin conjugates were each formulated into test samples with a basal medium containing 10% FBS (initial concentration of 5 μg/mL, 5-fold gradient dilution, nine gradients). Cells subjected to overnight adherence culture were taken out. For the experimental groups, the diluted test sample was added at 50 μL/well, and for the control group, the basal medium containing 10% FBS was added at 50 µL/well. The cells were then cultured for 96 h, 120 h, or 144 h, and then a CellTiter-Glo Luminescent Cell kit (Promega, Cat No.: G7572) was used for assay. The 96-well plate was taken out, the CTG detection solution (Promega. Cat No.: G7572) was added at 75 μL/well, and the mixture was well mixed by shaking and incubated at room temperature in the dark for 10 min. Then 180 μL of solution was pipetted from each well and transferred to an opaque white plate, bubbles were removed, chemiluminescence values were read, and killing rates were calculated.
(§2) Data were analyzed using Graphpad Prism5.

[2] = system: HCC1569 cells with high HER3 expression level; assay: Cell killing activity (CellTiter-Glo), HCC1569; assay type: cell-based; details: cultured for 96 h, 120 h, or 144 h
Procedure: as §1, §2

[3] = system: SKBR3 cells with medium HER3 expression level; assay: Cell killing activity (CellTiter-Glo), SKBR3; assay type: cell-based; details: cultured for 96 h, 120 h, or 144 h
Procedure: as §1, §2

[4] = system: NCI-N87 cells with medium HER3 expression level; assay: Cell killing activity (CellTiter-Glo), NCI-N87; assay type: cell-based; details: cultured for 96 h, 120 h, or 144 h
Procedure: as §1, §2

[5] = system: JIMT-1 human breast cancer cells; assay: Nude mouse subcutaneous xenograft tumor model of JIMT-1 human breast cancer cells; assay type: in vivo, nude mice; details: 3 mg/kg, tail vein injection, Q1W, d21; for Tumor growth inhibition rate 1-T/C: from relative tumor volume; for Tumor inhibition rate TGI: from tumor weight
Procedure: The in vivo efficacy of the patritumab-eribulin conjugates prepared in Example 4 above was evaluated by the nude mouse subcutaneous xenograft tumor models of JIMT-1 human breast cancer cells, a trastuzumab-resistant cell strain.
SPF-grade female nude mice (from Changzhou Cavens Laboratory Animal Ltd.) were inoculated subcutaneously at the right side armpit with 2×10^6 JIMT-1 cells per mouse. When the mean tumor volume reached […], the animals were divided into 5 groups of 6, and the specific grouping and administration regimen are shown in Table 6.
The day of grouping was do, and the tail vein administration was performed at d1 after grouping. The tumor volume was measured 2-3 times a week, and meanwhile, the mice were weighed and the data were recorded; the general behavior of the mice was observed and recorded every day. After the experiment was completed, the tumors were removed, weighed, and photographed.

[6] = system: MCF-7 cells with high HER3 expression level; assay: Cell killing activity (CellTiter-Glo), MCF-7; assay type: cell-based; details: cultured for 96 h, 120 h, or 144 h
Procedure: as §1, §2

[7] = system: JIMT-1 cells with medium HER3 expression level; assay: Cell killing activity (CellTiter-Glo), JIMT-1; assay type: cell-based, human; details: cultured for 96 h, 120 h, or 144 h
Procedure: as §1, §2

[8] = system: MDA-MB-468 cells with medium HER3 expression level; assay: Cell killing activity (CellTiter-Glo), MDA-MB-468; assay type: cell-based; details: cultured for 96 h, 120 h, or 144 h
Procedure: as §1, §2

## Patritumab-DDDXd-D8: patritumab-DDDXd conjugate (MC-GGFG-DDDXd, deuterated MC-GGFG-DXd) with a DAR of 7.9, used as control [reference compound]
[1]
  EC50: 10400 pM
[2]
  EC50: 18300 pM
[3]
  EC50: 57800 pM
[4]
  EC50: 371 pM
[5]
  Tumor growth inhibition rate 1-T/C: 24.4%
  Tumor inhibition rate TGI: 26.6%

## Patritumab-eribulin-D2: patritumab-eribulin conjugate (MC-GGFG-eribulin linker-payload) with a DAR of 2.6
[1]
  EC50: 93.5 pM
[6]
  EC50: 1170 pM
[2]
  EC50: 3600 pM
[3]
  EC50: 194 pM
[7]
  EC50: 10500 pM
[8]
  EC50: 12100 pM
[5]
  Tumor growth inhibition rate 1-T/C: 36.6%
  Tumor inhibition rate TGI: 41.1%

## Patritumab-eribulin-D4: patritumab-eribulin conjugate (MC-GGFG-eribulin linker-payload) with DAR of 4.0-4.2
[1]
  EC50: 39.8 pM
[6]
  EC50: 99.4 pM
[2]
  EC50: 778 pM
[3]
  EC50: 43 pM
[4]
  EC50: 13900 pM
[7]
  EC50: 3270 pM
[8]
  EC50: 1410 pM
[5]
  Tumor growth inhibition rate 1-T/C: 65.9%
  Tumor inhibition rate TGI: 68.9%

## Patritumab-eribulin-D8: patritumab-eribulin conjugate (MC-GGFG-eribulin linker-payload) with a DAR of 7.6
[1]
  EC50: 18.1 pM
[6]
  EC50: 36.1 pM
[2]
  EC50: 246 pM
[3]
  EC50: 23.2 pM
[4]
  EC50: 690 pM
[7]
  EC50: 946 pM
[8]
  EC50: 321 pM
[5]
  Tumor growth inhibition rate 1-T/C: 82.9%
  Tumor inhibition rate TGI: 84.3%
